In brackets after ≈: the same amount, converted by molar mass.
Experiments:
Aspergillus fumigatus = experiment: Antifungal activity against Aspergillus fumigatus HIC 6094 after 48 to 72 hrs by two fold serial dilution method; type: functional
Trichophyton rubrum = experiment: Antifungal activity against Trichophyton rubrum IFO 9185 after 48 to 72 hrs by two fold serial dilution method; type: functional
Candida albicans = experiment: Antifungal activity against Candida albicans ATCC 10231 after 24 to 72 hrs by two fold serial dilution method; type: functional
Isocitrate lyase = Isocitrate lyase (Candida albicans, UniProt Q9P8Q7); experiment: Inhibition of Candida albicans isocitrate lyase after 30 mins
Chain of Isocitrate lyase (Q9P8Q7 whole entry): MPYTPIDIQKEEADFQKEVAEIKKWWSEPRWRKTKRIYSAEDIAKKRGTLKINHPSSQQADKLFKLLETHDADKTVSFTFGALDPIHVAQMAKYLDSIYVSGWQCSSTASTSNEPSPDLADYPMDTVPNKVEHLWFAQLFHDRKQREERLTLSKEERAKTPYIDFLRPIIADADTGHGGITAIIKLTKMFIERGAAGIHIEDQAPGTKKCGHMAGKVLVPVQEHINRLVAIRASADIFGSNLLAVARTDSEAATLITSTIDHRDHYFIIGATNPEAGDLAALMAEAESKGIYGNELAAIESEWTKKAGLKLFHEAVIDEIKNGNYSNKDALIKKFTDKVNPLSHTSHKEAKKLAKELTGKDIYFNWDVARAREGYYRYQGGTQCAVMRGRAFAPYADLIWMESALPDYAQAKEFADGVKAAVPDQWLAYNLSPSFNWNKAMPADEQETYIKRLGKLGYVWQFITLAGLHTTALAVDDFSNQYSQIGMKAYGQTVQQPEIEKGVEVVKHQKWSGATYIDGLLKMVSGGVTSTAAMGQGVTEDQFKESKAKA

[1] = tested on: Trichophyton mentagrophytes; experiment: Antifungal activity against Trichophyton mentagrophytes IFO 40996 after 48 to 72 hrs by two fold serial dilution method; type: functional
Staphylococcus aureus = experiment: Antibacterial activity against Staphylococcus aureus ATCC 6538p after 24 hrs by two fold serial dilution method; type: functional
Bacillus subtilis = experiment: Antibacterial activity against Bacillus subtilis ATCC 6633 after 24 hrs by two fold serial dilution method; type: functional; conditions: ATCC 6633, 24 h
Micrococcus luteus = experiment: Antibacterial activity against Micrococcus luteus IFC 12708 after 24 hrs by two fold serial dilution method; type: functional; conditions: IFC 12708, 24 h
Salmonella typhimurium = experiment: Antibacterial activity against Salmonella Typhimurium ATCC 14028 after 24 hrs by two fold serial dilution method; type: functional, Salmonella enterica subsp. enterica serovar Typhimurium; conditions: Salmonella enterica, ATCC 14028, 24 h
Proteus vulgaris = experiment: Antibacterial activity against Proteus vulgaris ATCC 3851 after 24 hrs by two fold serial dilution method; type: functional; conditions: ATCC 3851, 24 h
Escherichia coli = experiment: Antibacterial activity against Escherichia coli ATCC 25922 after 24 hrs by two fold serial dilution method; type: functional; conditions: ATCC 25922, 24 h

SMILES	MIC (Aspergillus fumigatus) [µg/mL]	MIC (Trichophyton rubrum) [µg/mL]	MIC (Candida albicans) [µg/mL]	IC50 (Isocitrate lyase) [µM]	MIC [1] [µg/mL]	MIC (Staphylococcus aureus) [µg/mL]	MIC (Bacillus subtilis) [µg/mL]	MIC (Micrococcus luteus) [µg/mL]	MIC (Salmonella typhimurium) [µg/mL]	MIC (Proteus vulgaris) [µg/mL]	MIC (Escherichia coli) [µg/mL]
CCCCCC(c1cc(Br)c(O)cc1O)c1cc(Br)c(O)cc1O	12.5 (≈ 27.2 µM)	12.5 (≈ 27.2 µM)	25 (≈ 54.3 µM)	28	25 (≈ 54.3 µM)	3.12 (≈ 6.78 µM)	1.56 (≈ 3.39 µM)	1.56 (≈ 3.39 µM)	3.12 (≈ 6.78 µM)	1.56 (≈ 3.39 µM)	50 (≈ 109 µM)
Oc1ccc(C(c2cc(Br)c(O)cc2O)c2cc(Br)c(O)cc2O)cc1	50 (≈ 104 µM)	100 (≈ 207 µM)	50 (≈ 104 µM)	25.9	100 (≈ 207 µM)	0.78 (≈ 1.62 µM)	0.78 (≈ 1.62 µM)	0.78 (≈ 1.62 µM)	1.56 (≈ 3.24 µM)	0.78 (≈ 1.62 µM)	> 100
Oc1cc(O)c(C(c2cc(Br)c(O)cc2O)c2c(Cl)cccc2Cl)cc1Br	100 (≈ 187 µM)	> 100	100 (≈ 187 µM)	17.9	100 (≈ 187 µM)	6.25 (≈ 11.7 µM)	1.56 (≈ 2.92 µM)	1.56 (≈ 2.92 µM)	6.25 (≈ 11.7 µM)	1.56 (≈ 2.92 µM)	100 (≈ 187 µM)
O=[N+]([O-])c1cccc(C(c2cc(Br)c(O)cc2O)c2cc(Br)c(O)cc2O)c1	100 (≈ 196 µM)	100 (≈ 196 µM)	50 (≈ 97.8 µM)	26.8	100 (≈ 196 µM)	3.12 (≈ 6.1 µM)	1.56 (≈ 3.05 µM)	1.56 (≈ 3.05 µM)	3.12 (≈ 6.1 µM)	1.56 (≈ 3.05 µM)	> 100
O=[N+]([O-])c1ccc(C(c2cc(Br)c(O)cc2O)c2cc(Br)c(O)cc2O)cc1	> 100	> 100	> 100	20.7	> 100	25 (≈ 48.9 µM)	12.5 (≈ 24.5 µM)	12.5 (≈ 24.5 µM)	25 (≈ 48.9 µM)	25 (≈ 48.9 µM)	> 100
CCCCCC(c1ccc(O)cc1O)c1cc(Br)c(O)cc1O (configuration not stated)	50 (≈ 131 µM)	50 (≈ 131 µM)	50 (≈ 131 µM)	46.6	50 (≈ 131 µM)	6.25 (≈ 16.4 µM)	3.12 (≈ 8.18 µM)	3.12 (≈ 8.18 µM)	3.12 (≈ 8.18 µM)	3.12 (≈ 8.18 µM)	100 (≈ 262 µM)
Oc1ccc(C(c2ccc(O)cc2O)c2cc(Br)c(O)cc2O)cc1 (configuration not stated)	> 100	> 100	> 100	90.5	> 100	6.25 (≈ 15.5 µM)	3.12 (≈ 7.74 µM)	3.12 (≈ 7.74 µM)	6.25 (≈ 15.5 µM)	3.12 (≈ 7.74 µM)	> 100
Oc1ccc(C(c2cc(Br)c(O)cc2O)c2c(Cl)cccc2Cl)c(O)c1 (configuration not stated)	> 100	> 100	> 100	78.7	> 100	12.5 (≈ 27.4 µM)	6.25 (≈ 13.7 µM)	12.5 (≈ 27.4 µM)	12.5 (≈ 27.4 µM)	12.5 (≈ 27.4 µM)	> 100
O=[N+]([O-])c1cccc(C(c2ccc(O)cc2O)c2cc(Br)c(O)cc2O)c1 (configuration not stated)	> 100	> 100	100 (≈ 231 µM)	69.9	> 100	12.5 (≈ 28.9 µM)	6.25 (≈ 14.5 µM)	12.5 (≈ 28.9 µM)	6.25 (≈ 14.5 µM)	6.25 (≈ 14.5 µM)	> 100
O=[N+]([O-])c1ccc(C(c2ccc(O)cc2O)c2cc(Br)c(O)cc2O)cc1 (configuration not stated)	> 100	> 100	> 100	41.2	> 100	100 (≈ 231 µM)	50 (≈ 116 µM)	50 (≈ 116 µM)	100 (≈ 231 µM)	100 (≈ 231 µM)	> 100
CCCCCC(c1ccc(O)cc1O)c1ccc(O)cc1O	> 100	> 100	> 100	167	> 100	12.5 (≈ 41.3 µM)	6.25 (≈ 20.7 µM)	12.5 (≈ 41.3 µM)	12.5 (≈ 41.3 µM)	12.5 (≈ 41.3 µM)	100 (≈ 331 µM)
O=C(O)CC[N+](=O)[O-]				6							
CC1(C)S[C@@H]2[C@H](NC(=O)[C@H](N)c3ccccc3)C(=O)N2[C@H]1C(=O)O [AMPICILLIN]	1.56 (≈ 4.46 µM)	1.56 (≈ 4.46 µM)	0.78 (≈ 2.23 µM)		1.56 (≈ 4.46 µM)	0.39 (≈ 1.12 µM)	0.39 (≈ 1.12 µM)	1.56 (≈ 4.46 µM)	0.78 (≈ 2.23 µM)	0.78 (≈ 2.23 µM)	6.25 (≈ 17.9 µM)
